Test results as given in patent publication US12358875B2, “N-(phenyl)-indole-3-sulfonamide derivatives and related compounds as GPR17 modulators for treating CNS disorders such as multiple sclerosis” (UCB Pharma GMBH, priority 2019, dated 2025).

Biological target: GPR17 (Homo sapiens, UniProt Q13304)
Test: cAMP accumulation functional assay (HTRF), Schild analysis against MDL29,951 in CHO hGPR17
Type: cell-based
Set-up: host or cells: Flp-In T-REx CHO
Conditions: CHO hGPR17, Schild analysis vs MDL29,951, 5 μM forskolin; read-out: cAMP assay pA2 (converted)
Description: Flp-In T-REx CHO cells stably expressing human GPR17 receptor (CHO hGPR17) from Evi Kostenis' lab (Bonn University, Germany) were cultured at 37° C. in a humidified atmosphere of 5% CO2. Cells were grown in DMEM with Nutrient Mixture F-12 supplemented with hygromycin B (500 μg/ml) and blasticidin (30 μg/ml). Expression from the Flp-In locus was induced by treatment with doxycycline (1 μg/ml) for 16-20 h prior assays.
GPR17 activation can also recruit Gi-type G-protein signaling, resulting in a decrease of intracellular cyclic adenosine monophosphate (cAMP). Intracellular cAMP changes can be measured using the HTRF cAMP dynamic assay kit from CisBio (Codolet, France). Using homogenous time-resolved fluorescence technology (HTRF), the assay is based on competition between native cAMP produced by cells and cAMP labelled with the dye d2. The tracer binding was determined by an anti-cAMP antibody labeled with cryptate.
CHO hGPR17 were detached with PBS containing EDTA and dispatched in black 384-well plates with 5,000 cells per well. Cells were first incubated for 30 minutes at room temperature in HBSS Hepes (pH 7.4) containing vehicle or varying concentrations of test GPR17 antagonist/inverse agonist compounds. Then, a dose response curve of MDL29,951 GPR17 agonist (typically from 10^−5M to 10^−10M) was added on vehicle and on each test GPR17 antagonist/inverse agonist compound concentration in a final volume of 20 μL HBSS Hepes buffer (pH 7.4) containing 1% DMSO, 5 μM forskolin and 0.1 mM IBMX. After 60 minutes incubation at room temperature, the reaction is terminated and the cells lysed by adding the d2 detection reagent and the cryptate reagent in 10 μL lysis buffer each according to manufacturer's instructions. After 60 minutes incubation, changes in cAMP concentrations are measured according to manufacturer's instructions using an Envision plate reader with laser excitation. All incubations were performed in duplicate. Data was analyzed using GraphPad Prism software using the 4-parameter logistic equation to measure MDL29,951 pEC50s in absence and presence of GPR17 antagonist/inverse agonist test compounds. Dose ratio (DR) were plotted against antagonist concentrations and Schild analysis provided estimated affinity pA2 of GPR17 antagonist/inverse agonist test compounds.
The activities of the Example compounds tested are depicted in the table below. The activity ranges A, B and C refer to pA2 values in the cAMP assay as follows: “A”: pA2 6.5≤x<7.5, “B”: pA2 7.5≤x<8.5, “C”: 8.5≤pA2.

Sequence of GPR17 (Q13304 29-367 limits assumed): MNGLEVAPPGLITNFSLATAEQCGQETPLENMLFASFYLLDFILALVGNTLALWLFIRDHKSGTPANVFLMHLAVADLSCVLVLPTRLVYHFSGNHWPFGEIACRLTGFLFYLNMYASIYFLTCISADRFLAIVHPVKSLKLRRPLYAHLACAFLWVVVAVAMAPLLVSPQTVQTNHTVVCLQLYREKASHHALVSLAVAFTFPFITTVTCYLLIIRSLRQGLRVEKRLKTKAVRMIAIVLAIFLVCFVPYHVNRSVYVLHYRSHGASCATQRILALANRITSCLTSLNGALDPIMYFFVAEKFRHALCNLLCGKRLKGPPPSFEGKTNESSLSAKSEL

`Cn1cc(S(=O)(=O)Nc2cc(F)c(Br)cc2F)c2ccc(Cl)nc21` [Example I-3, N-(4-bromo-2,5-difluorophenyl)-6-chloro-1-methylpyrrolo[2,3-b]pyridine-3-sulfonamide] and `O=S(=O)(Nc1cc(F)c(Br)cc1F)c1cn(CCO)c2nc(Cl)ccc12` [Example I-30, N-(4-bromo-2,5-difluorophenyl)-6-chloro-1-(2-hydroxyethyl)pyrrolo[2,3-b]pyridine-3-sulfonamide] fall in the same range of Kb: 3.16 to 31.6 nM for the first, 3.16 to 31.6 nM for the second.

First: Cn1cc(S(=O)(=O)Nc2cc(F)c(OC(F)F)cc2F)c2ccc(Cl)nc21 [Example I-4, 6-chloro-N-[4-(difluoromethoxy)-2,5-difluorophenyl]-1-methylpyrrolo[2,3-b]pyridine-3-sulfonamide]
Second: O=S(=O)(Nc1cc(F)c(OC(F)F)cc1F)c1cn(CC(F)F)c2nc(Cl)ccc12 [Example I-5, 6-chloro-1-(2,2-difluoroethyl)-N-[4-(difluoromethoxy)-2,5-difluorophenyl]pyrrolo[2,3-b]pyridine-3-sulfonamide]
The Kb of the first is lower: 3.16 to 31.6 nM for the first, 31.6 to 316 nM for the second.

`O=S(=O)(Nc1cc(F)c(Br)cc1F)c1cn(CC(F)F)c2nc(Cl)ccc12` [Example I-6, N-(4-bromo-2,5-difluorophenyl)-6-chloro-1-(2,2-difluoroethyl)pyrrolo[2,3-b]pyridine-3-sulfonamide] and `O=S(=O)(Nc1cc(F)c(Br)cc1F)c1cn(CC(F)CO)c2nc(Cl)ccc12` (centres unmarked) [Example I-8, N-(4-bromo-2,5-difluorophenyl)-6-chloro-1-(2-fluoro-3-hydroxypropyl)pyrrolo[2,3-b]pyridine-3-sulfonamide] fall in the same range of Kb: 31.6 to 316 nM for the first, 31.6 to 316 nM for the second.

`O=S(=O)(Nc1cc(F)c(Br)cc1F)c1cn(CC(F)CO)c2cc(Cl)ccc12` (centres unmarked) [Example I-7, N-(4-bromo-2,5-difluorophenyl)-6-chloro-1-(2-fluoro-3-hydroxypropyl)indole-3-sulfonamide] and `O=S(=O)(Nc1cc(F)c(Br)cc1F)c1cn(CC(O)CO)c2cc(Cl)ccc12` (centres unmarked) [Example I-28, N-(4-bromo-2,5-difluorophenyl)-6-chloro-1-(2,3-dihydroxypropyl)indole-3-sulfonamide] fall in the same range of Kb: 3.16 to 31.6 nM for the first, 3.16 to 31.6 nM for the second.

First: COc1nc(NS(=O)(=O)c2cn(CCO)c3cc(Cl)ccc23)ccc1Br [Example I-9, N-(5-bromo-6-methoxypyridin-2-yl)-6-chloro-1-(2-hydroxyethyl)indole-3-sulfonamide]
Second: O=S(=O)(Nc1cc(F)c(Br)cc1F)c1cn(CCO)c2cc(Cl)ccc12 [Example I-10, N-(4-bromo-2,5-difluorophenyl)-6-chloro-1-(2-hydroxyethyl)indole-3-sulfonamide]
The Kb of the first is higher: 31.6 to 316 nM for the first, 3.16 to 31.6 nM for the second.

Compared with `O=C(O)Cn1cc(S(=O)(=O)Nc2cc(F)c(Br)cc2F)c2ccc(Cl)cc21` [Example I-11, 2-[3-[(4-bromo-2,5-difluorophenyl)sulfamoyl]-6-chloroindol-1-yl]acetic acid], `CC(=O)Cn1cc(S(=O)(=O)Nc2cc(F)c(Br)cc2F)c2ccc(Cl)cc21` [Example I-17, N-(4-bromo-2,5-difluorophenyl)-6-chloro-1-(2-oxopropyl)indole-3-sulfonamide] is higher in Kb: at most 3.16 nM for the first, 31.6 to 316 nM for the second.

First: Cn1cc(S(=O)(=O)Nc2cc(F)c(Br)cc2F)c2ccc(Cl)cc21 [Example I-12, N-(4-bromo-2,5-difluorophenyl)-6-chloro-1-methylindole-3-sulfonamide]
Second: O=S(=O)(Nc1cc(F)c(Br)cc1F)c1cn(CCCl)c2cc(Cl)ccc12 [Example I-13, N-(4-bromo-2,5-difluorophenyl)-6-chloro-1-(2-chloroethyl)indole-3-sulfonamide]
The Kb of the first is lower: 3.16 to 31.6 nM for the first, 31.6 to 316 nM for the second.

First: O=S(=O)(Nc1cc(F)c(Br)cc1F)c1cn(CCCO)c2cc(Cl)ccc12 [Example I-14, N-(4-bromo-2,5-difluorophenyl)-6-chloro-1-(3-hydroxypropyl)indole-3-sulfonamide]
Second: O=S(=O)(Nc1cc(F)c(Br)cc1F)c1cn(CCOCCO)c2cc(Cl)ccc12 [Example I-16, N-(4-bromo-2,5-difluorophenyl)-6-chloro-1-[2-(2-hydroxyethoxy)ethyl]indole-3-sulfonamide]
The Kb of the first is higher: 31.6 to 316 nM for the first, 3.16 to 31.6 nM for the second.

First: CN(C)CCn1cc(S(=O)(=O)Nc2cc(F)c(Br)cc2F)c2ccc(Cl)cc21 [Example I-15, N-(4-bromo-2,5-difluorophenyl)-6-chloro-1-[2-(dimethylamino)ethyl]indole-3-sulfonamide]
Second: CC(O)Cn1cc(S(=O)(=O)Nc2cc(F)c(Br)cc2F)c2ccc(Cl)cc21 (centres unmarked) [Example I-18, N-(4-bromo-2,5-difluorophenyl)-6-chloro-1-(2-hydroxypropyl)indole-3-sulfonamide]
The Kb of the first is higher: 31.6 to 316 nM for the first, at most 3.16 nM for the second.

`O=S(=O)(Nc1cc(F)c(Br)cc1F)c1cn(CC(O)CF)c2cc(Cl)ccc12` (centres unmarked) [Example I-19, N-(4-bromo-2,5-difluorophenyl)-6-chloro-1-(3-fluoro-2-hydroxypropyl)indole-3-sulfonamide] and `O=S(=O)(Nc1cc(F)c(Br)cc1F)c1cn(CC(O)C(F)(F)F)c2cc(Cl)ccc12` (centres unmarked) [Example I-20, N-(4-bromo-2,5-difluorophenyl)-6-chloro-1-(3,3,3-trifluoro-2-hydroxypropyl)indole-3-sulfonamide] fall in the same range of Kb: 3.16 to 31.6 nM for the first, 3.16 to 31.6 nM for the second.

`O=S(=O)(Nc1cc(F)c(OC(F)F)cc1F)c1cn(CCO)c2cc(Cl)ccc12` [Example I-21, 6-chloro-N-[4-(difluoromethoxy)-2,5-difluorophenyl]-1-(2-hydroxyethyl)indole-3-sulfonamide] and `O=S(=O)(Nc1cc(F)c(OC(F)F)cc1F)c1cn(CCF)c2cc(Cl)ccc12` [Example I-24, 6-chloro-N-[4-(difluoromethoxy)-2,5-difluorophenyl]-1-(2-fluoroethyl)indole-3-sulfonamide] fall in the same range of Kb: 3.16 to 31.6 nM for the first, 3.16 to 31.6 nM for the second.

First: Cn1cc(S(=O)(=O)Nc2cc(F)c(OC(F)F)cc2F)c2ccc(Cl)cc21 [Example I-22, 6-chloro-N-[4-(difluoromethoxy)-2,5-difluorophenyl]-1-methylindole-3-sulfonamide]
Second: CCn1cc(S(=O)(=O)Nc2cc(F)c(OC(F)F)cc2F)c2ccc(Cl)cc21 [Example I-23, 6-chloro-N-[4-(difluoromethoxy)-2,5-difluorophenyl]-1-ethylindole-3-sulfonamide]
The Kb of the first is lower: 3.16 to 31.6 nM for the first, 31.6 to 316 nM for the second.

`CCCn1cc(S(=O)(=O)Nc2cc(F)c(OC(F)F)cc2F)c2ccc(Cl)cc21` [Example I-25, 6-chloro-N-[4-(difluoromethoxy)-2,5-difluorophenyl]-1-propylindole-3-sulfonamide] and `COCCn1cc(S(=O)(=O)Nc2cc(F)c(OC(F)F)cc2F)c2ccc(Cl)cc21` [Example I-26, 6-chloro-N-[4-(difluoromethoxy)-2,5-difluorophenyl]-1-(2-methoxyethyl)indole-3-sulfonamide] fall in the same range of Kb: 31.6 to 316 nM for the first, 31.6 to 316 nM for the second.

`O=S(=O)(Nc1cc(F)c(OC(F)F)cc1F)c1cn(CC(O)CO)c2cc(Cl)ccc12` (centres unmarked) [Example I-27, 6-chloro-N-[4-(difluoromethoxy)-2,5-difluorophenyl]-1-(2,3-dihydroxypropyl)indole-3-sulfonamide] and `COc1nc(Cl)c(F)cc1NS(=O)(=O)c1cn(CC(O)CO)c2cc(Cl)ccc12` (centres unmarked) [Example I-34, 6-chloro-N-(6-chloro-5-fluoro-2-methoxypyridin-3-yl)-1-(2,3-dihydroxypropyl)indole-3-sulfonamide] cannot be ordered by Kb: at most 3.16 nM for the first, 3.16 to 31.6 nM for the second.

`O=S(=O)(Nc1cc(F)c(Br)cc1F)c1cn(CC(O)CO)c2nc(Cl)ccc12` (centres unmarked) [Example I-29, N-(4-bromo-2,5-difluorophenyl)-6-chloro-1-(2,3-dihydroxypropyl)pyrrolo[2,3-b]pyridine-3-sulfonamide] and `COc1nc(Cl)c(F)cc1NS(=O)(=O)c1cn(CC(O)CF)c2cc(Cl)ccc12` (centres unmarked) [Example I-33, 6-chloro-N-(6-chloro-5-fluoro-2-methoxypyridin-3-yl)-1-(3-fluoro-2-hydroxypropyl)indole-3-sulfonamide] cannot be ordered by Kb: 3.16 to 31.6 nM for the first, at most 3.16 nM for the second.

`COc1nc(Cl)c(F)cc1NS(=O)(=O)c1cn(C)c2cc(Cl)ccc12` [Example I-31, 6-chloro-N-(6-chloro-5-fluoro-2-methoxypyridin-3-yl)-1-methylindole-3-sulfonamide] and `COc1nc(Cl)c(F)cc1NS(=O)(=O)c1cn(CC(F)F)c2cc(Cl)ccc12` [Example I-32, 6-chloro-N-(6-chloro-5-fluoro-2-methoxypyridin-3-yl)-1-(2,2-difluoroethyl)indole-3-sulfonamide] fall in the same range of Kb: 3.16 to 31.6 nM for the first, 3.16 to 31.6 nM for the second.
